One molecule from patent US8653076B2, “Oxo-substituted imidazo[1,2B]pyridazines, their preparation and use as pharmaceuticals” (Bayer Intellectual Property GmbH, priority 2006, dated 2014) can be followed below.

As usually defined, the inhibition is the percentage by which the read-out fell short of the control. A low value points to little suppression.

In assay [1] the test system is interleukin 2 (IL-2) secretion. Briefly: anti-CD3/anti-CD28 antibody-induced IL-2 secretion in human PBMC (ELISA). The conditions noted are these: human PBMC stimulated with anti-CD3 and anti-CD28, 20 hours. The class given is cell-based. On the procedure: The extent to which test substance influence antibody-induced interleukin 2 (IL-2) secretion was investigated in the following test system. IL-2 represents a central cytokine which is produced and released by activated T cells. IL-2 synthesis in the T cells is regulated by a plurality of kinases. An inhibitory effect of substances on kinases leads inter alia to inhibition of IL-2 synthesis and inhibition of the T cell immune response. The cytokine determinations were carried out using an ELISA kit.
Peripheral blood mononuclear cells (PBMC) were isolated from heparinized human whole blood by gradient centrifugation using Histopaque 1077 (Sigma) at room temperature, and the erythrocytes were lyzed hypotonically and, after washing twice in PBS, taken up in cell culture medium (10% fetal inactivated calf serum in RPMI-1640+Glutamax-I [Gibco]).
The 96 well culture plates (Costar) were previously incubated with 100 μl of antibody solution in PBS 0.1 μg/ml in PBS [Gibco]) per well at 4° C. for 18 hours. The antibodies used were anti-CD3 and anti-CD28 monoclonal antibodies (PharMingen). After washing with PBS three times, the plates were charged with 200 μl of the cell suspension (40 000 cells/well). […]
Interleukin-2 was determined using an ELISA kit (Bioscience), and the absorption of the color change was analyzed in a SpectraMax 340 PC (wavelength 450 nm). […]

Another assay deals with T1, protein kinase C theta (Homo sapiens, UniProt Q04759).
T1 construct: purchased ProQinase (Freiburg)
Briefly: PKC-theta HTRF kinase assay. The format is biochemical. To be noted: recombinant PKC-theta, 10 μM ATP, read-out: Inhibition of PKC theta IC50. On the procedure: Inhibition of the enzymic activity of the protein kinase C theta was determined with the aid of the PKC-theta HTRF assay.
Recombinant PKC-theta protein was purchased from ProQinase (Freiburg). The kinase substrate used was the biotinylated peptide having the amino acid sequence biotin-RFARKGSLRQKNVHEVK, which was purchased from Biosynthan (Berlin).
PKC-theta [0.7 nM in the assay mixture, assay volume 5 μl] was incubated at 22° C. for 15 min in the presence of various concentrations of test substances (0 μM, and 10 measurement points within the range 0.001-20 μM in duplicates) in assay buffer [50 mM Hepes/NaOH pH 7.4, 1.0 mM MnCl2, 10.0 mM MgCl2, 1.0 mM dithiothreitol, 0.1 mM sodium orthovanadate, 10 μM adenosine triphosphate (ATP), 0.5 μM substrate peptide, 0.1 mg/ml phosphatidyl serine, 0.01 mg/ml diacylglycerol, 1% (v/v) dimethyl sulfoxide]. The reaction was stopped by adding 5 μl of an EDTA/detection solution [50 mM Hepes/NaOH pH 7.4, 400 mM KF, 40 mM EDTA, 0.1% bovine serum albumin, 100 nM streptavidin-XLlent (from Cisbio, #611SAXLB), 1.8 nM anti-phospho PKC substrate crypate conjugate antibody (CisBio: #61P03KAZ)]. […]
In general terms: Time-resolved FRET reads energy transfer from a long-lived donor to a nearby acceptor.

pIC50: −log10 of the molar value.

T1 sequence (Q04759 whole entry): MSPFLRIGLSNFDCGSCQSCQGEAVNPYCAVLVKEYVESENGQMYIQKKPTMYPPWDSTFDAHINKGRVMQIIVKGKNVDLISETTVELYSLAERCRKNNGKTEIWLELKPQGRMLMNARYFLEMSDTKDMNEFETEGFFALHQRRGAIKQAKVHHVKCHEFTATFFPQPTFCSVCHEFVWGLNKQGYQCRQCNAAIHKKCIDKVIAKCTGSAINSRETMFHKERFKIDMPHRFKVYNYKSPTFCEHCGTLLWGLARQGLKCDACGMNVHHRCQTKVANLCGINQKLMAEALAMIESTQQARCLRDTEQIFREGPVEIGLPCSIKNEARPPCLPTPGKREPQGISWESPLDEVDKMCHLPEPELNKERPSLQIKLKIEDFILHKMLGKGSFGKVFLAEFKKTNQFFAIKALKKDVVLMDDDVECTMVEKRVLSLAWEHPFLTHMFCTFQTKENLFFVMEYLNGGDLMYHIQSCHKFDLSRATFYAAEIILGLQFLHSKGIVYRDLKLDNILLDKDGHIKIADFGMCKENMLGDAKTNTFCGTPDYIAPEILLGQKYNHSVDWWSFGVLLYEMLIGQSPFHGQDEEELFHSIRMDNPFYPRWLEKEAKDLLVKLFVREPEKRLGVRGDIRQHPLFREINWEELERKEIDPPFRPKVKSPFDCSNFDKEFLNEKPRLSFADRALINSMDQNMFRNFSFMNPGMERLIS

In assay [1] (10 μM), `Clc1cccc(-c2cnc3ccc(OCCCN4CCOCC4)nn23)c1` [Example 1, 3-(3-Chlorophenyl)-6-(3-morpholin-4-ylpropoxy)imidazo[1,2-b]pyridazine] yielded an inhibition at 10 µM greater than 95%. Further, the pIC50 is 5.89 in assay [1] (IL-2 ELISA, read-out: IC50 (concentration for 50% inhibition of IL-2)) and 5.39 on protein kinase C theta.
